# How the values were obtained:
# Assay type in all cases: cell-based
# E. coli DH5α = assay: Antibacterial activity: MIC and growth curve against E. coli DH5α in 96-well plate; conditions: minimal inhibitory concentration against E. coli DH5α; 96-well plate, 5×10^5 CFU/mL, 37° C., judged after 8 h
# Method in brief: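 Log-phase bacteria (OD600 ~0.5) resuspended in LB at 5×10^5 CFU/mL, exposed to recombinant protein at 50, 25, 12.5 μg/mL final in triplicate, 37 °C shaking at 175 rpm. OD600 read every 30 min; MIC is lowest concentration showing no growth.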
# E. coli BL21 = assay: MIC against Gram-negative bacteria: E. coli BL21; conditions: 5×10^5 CFU/mL
# Method in brief: (§1)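 Bacteria grown in LB at 37° C to McFarland 0.5, resuspended and seeded at 5×10^5 CFU/mL in 96-well plates. Purified human EGF-domain proteins two-fold serially diluted, triplicate wells; cultured at 37° C, shaking 175 rpm. MIC = lowest protein concentration with no growth.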
# Pseudomonas aeruginosa = assay: MIC against Gram-negative bacteria: Pseudomonas aeruginosa; conditions: 5×10^5 CFU/mL
# Method in brief: as §1
# Klebsiella pneumonia = assay: MIC against Gram-negative bacteria: Klebsiella pneumonia; conditions: 5×10^5 CFU/mL
# Method in brief: as §1
# Enterobacter cloacae = assay: MIC against Gram-negative bacteria: Enterobacter cloacae; conditions: 5×10^5 CFU/mL
# Method in brief: as §1
# Aeromonas hydrophila = assay: MIC against Gram-negative bacteria: Aeromonas hydrophila; conditions: 5×10^5 CFU/mL
# Method in brief: as §1
# Citrobacter diversus = assay: MIC against Gram-negative bacteria: Citrobacter diversus; conditions: 5×10^5 CFU/mL
# Method in brief: as §1
# Moraxella catarrhalis = assay: MIC against Gram-negative bacteria: Moraxella catarrhalis; conditions: 5×10^5 CFU/mL
# Method in brief: as §1
# Proteus mirabilis = assay: MIC against Gram-negative bacteria: Proteus mirabilis; conditions: 5×10^5 CFU/mL
# Method in brief: as §1
# Proteus vulgaris = assay: MIC against Gram-negative bacteria: Proteus vulgaris; conditions: 5×10^5 CFU/mL
# Method in brief: as §1
# Serratia marcescens = assay: MIC against Gram-negative bacteria: Serratia marcescens; conditions: 5×10^5 CFU/mL
# Method in brief: as §1
# [1] = 10 h cultivation at 37° C., two-fold serial dilution
# [2] = E. coli BL21, 10 h cultivation at 37° C.
substance,measurement,setting,value
PRT1047 (SNTCTCKNGGTCLPENGNCVCAPGFRGPSCQ; listed as Homo sapiens),MIC,E. coli DH5α,50 µg/mL
same,MIC E. coli BL21,E. coli BL21; [1],50 µg/mL
same,MIC P. aeruginosa,Pseudomonas aeruginosa; [1],25 µg/mL
same,MIC K. pneumonia,Klebsiella pneumonia; [1],50 µg/mL
same,MIC E. cloacae,Enterobacter cloacae; [1],25 µg/mL
same,MIC A. hydrophila,Aeromonas hydrophila; [1],12.5 µg/mL
same,MIC C. diversus,Citrobacter diversus; [1],50 µg/mL
same,MIC M. catarrhalis,Moraxella catarrhalis; [1],12.5 µg/mL
same,MIC P. mirabilis,Proteus mirabilis; [1],12.5 µg/mL
same,MIC P. vulgaris,Proteus vulgaris; [1],12.5 µg/mL
same,MIC S. marcescens,Serratia marcescens; [1],12.5 µg/mL
PRT602 (CKCHPQGSVGSSCSRLGGQCQCKPLVVGRCCDRCSTGSYDLGHHGCHP; listed as Homo sapiens),MIC,E. coli DH5α,50 µg/mL
same,MIC E. coli BL21,"E. coli BL21; 96-well plate, 37° C., 10 h",12.5 µg/mL
same,MIC P. aeruginosa,"Pseudomonas aeruginosa; 96-well plate, 37° C., 10 h",50 µg/mL
same,MIC K. pneumonia,"Klebsiella pneumonia; 96-well plate, 37° C., 10 h",12.5 µg/mL
same,MIC E. cloacae,"Enterobacter cloacae; 96-well plate, 37° C., 10 h",50 µg/mL
same,MIC A. hydrophila,"Aeromonas hydrophila; 96-well plate, 37° C., 10 h",12.5 µg/mL
same,MIC C. diversus,"Citrobacter diversus; 96-well plate, 37° C., 10 h",50 µg/mL
same,MIC M. catarrhalis,"Moraxella catarrhalis; 96-well plate, 37° C., 10 h",12.5 µg/mL
same,MIC P. mirabilis,"Proteus mirabilis; 96-well plate, 37° C., 10 h",50 µg/mL
same,MIC P. vulgaris,"Proteus vulgaris; 96-well plate, 37° C., 10 h",25 µg/mL
same,MIC S. marcescens,"Serratia marcescens; 96-well plate, 37° C., 10 h",12.5 µg/mL
PRT1055 (GADPCLYQNGGCEHICKKRLGTAWCSCREGFMKASDGKTCL; listed as Homo sapiens),MIC,E. coli DH5α,12.5 µg/mL
same,MIC E. coli BL21,E. coli BL21; [1],50 µg/mL
same,MIC P. aeruginosa,Pseudomonas aeruginosa; [1],12.5 µg/mL
same,MIC K. pneumonia,Klebsiella pneumonia; [1],50 µg/mL
same,MIC E. cloacae,Enterobacter cloacae; [1],12.5 µg/mL
same,MIC A. hydrophila,Aeromonas hydrophila; [1],50 µg/mL
same,MIC C. diversus,Citrobacter diversus; [1],25 µg/mL
same,MIC M. catarrhalis,Moraxella catarrhalis; [1],12.5 µg/mL
same,MIC P. mirabilis,Proteus mirabilis; [1],25 µg/mL
same,MIC P. vulgaris,Proteus vulgaris; [1],50 µg/mL
same,MIC S. marcescens,Serratia marcescens; [1],12.5 µg/mL
PRT780 (EYSSCSRHPCQNGGTCINGRTSFTCACRHPFTGDNCT; listed as Homo sapiens),MIC,E. coli DH5α,12.5 µg/mL
same,MIC (μg/mL) E. coli BL21,E. coli BL21; [2],50 µg/mL
same,MIC (μg/mL) P. aeruginosa,Pseudomonas aeruginosa; 10 h cultivation at 37° C.,12.5 µg/mL
same,MIC (μg/mL) K. pneumonia,Klebsiella pneumonia; 10 h cultivation at 37° C.,50 µg/mL
same,MIC (μg/mL) E. cloacae,Enterobacter cloacae; 10 h cultivation at 37° C.,12.5 µg/mL
same,MIC (μg/mL) A. hydrophila,Aeromonas hydrophila; 10 h cultivation at 37° C.,50 µg/mL
same,MIC (μg/mL) C. diversus,Citrobacter diversus; 10 h cultivation at 37° C.,25 µg/mL
same,MIC (μg/mL) M. catarrhalis,Moraxella catarrhalis; 10 h cultivation at 37° C.,12.5 µg/mL
same,MIC (μg/mL) P. mirabilis,Proteus mirabilis; 10 h cultivation at 37° C.,25 µg/mL
same,MIC (μg/mL) P. vulgaris,Proteus vulgaris; 10 h cultivation at 37° C.,50 µg/mL
same,MIC (μg/mL) S. marcescens,Serratia marcescens; 10 h cultivation at 37° C.,12.5 µg/mL
PRT1337 (QTSACGPYVQFCHIHATCEYSNGTASCICKAGYEGDGTLCS; listed as Homo sapiens),MIC,E. coli DH5α,12.5 µg/mL
same,MIC against E. coli BL21,"E. coli BL21; E. coli BL21, 96-well plate, 37° C., 10 h",50 µg/mL
same,MIC against P. aeruginosa,"Pseudomonas aeruginosa; Pseudomonas aeruginosa, 96-well plate, 37° C., 10 h",12.5 µg/mL
same,MIC against K. pneumonia,"Klebsiella pneumonia; Klebsiella pneumonia, 96-well plate, 37° C., 10 h",25 µg/mL
same,MIC against E. cloacae,"Enterobacter cloacae; Enterobacter cloacae, 96-well plate, 37° C., 10 h",50 µg/mL
same,MIC against A. hydrophila,"Aeromonas hydrophila; Aeromonas hydrophila, 96-well plate, 37° C., 10 h",25 µg/mL
same,MIC against C. diversus,"Citrobacter diversus; Citrobacter diversus, 96-well plate, 37° C., 10 h",25 µg/mL
same,MIC against M. catarrhalis,"Moraxella catarrhalis; Moraxella catarrhalis, 96-well plate, 37° C., 10 h",12.5 µg/mL
same,MIC against P. mirabilis,"Proteus mirabilis; Proteus mirabilis, 96-well plate, 37° C., 10 h",25 µg/mL
same,MIC against P. vulgaris,"Proteus vulgaris; Proteus vulgaris, 96-well plate, 37° C., 10 h",50 µg/mL
same,MIC against S. marcescens,"Serratia marcescens; Serratia marcescens, 96-well plate, 37° C., 10 h",12.5 µg/mL
PRT537 (CDCNGNSNECLDGSGYCVHCQRNTTGEHCEKCLDGYIGDSIRGAPQFCQP; listed as Homo sapiens),MIC,E. coli DH5α,50 µg/mL
same,MIC against E. coli BL21,"E. coli BL21; 96-well plate, 37° C., 10 h",25 µg/mL
same,MIC against P. aeruginosa,"Pseudomonas aeruginosa; 96-well plate, 37° C., 10 h",12.5 µg/mL
same,MIC against K. pneumonia,"Klebsiella pneumonia; 96-well plate, 37° C., 10 h",25 µg/mL
same,MIC against E. cloacae,"Enterobacter cloacae; 96-well plate, 37° C., 10 h",50 µg/mL
same,MIC against A. hydrophila,"Aeromonas hydrophila; 96-well plate, 37° C., 10 h",25 µg/mL
same,MIC against C. diversus,"Citrobacter diversus; 96-well plate, 37° C., 10 h",12.5 µg/mL
same,MIC against M. catarrhalis,"Moraxella catarrhalis; 96-well plate, 37° C., 10 h",25 µg/mL
same,MIC against P. mirabilis,"Proteus mirabilis; 96-well plate, 37° C., 10 h",12.5 µg/mL
same,MIC against P. vulgaris,"Proteus vulgaris; 96-well plate, 37° C., 10 h",25 µg/mL
same,MIC against S. marcescens,"Serratia marcescens; 96-well plate, 37° C., 10 h",12.5 µg/mL
PRT158 (PGESHANDLECSGKGKCTTKPSEATFSCTCEEQYVGTFCE; listed as Homo sapiens),MIC,E. coli DH5α,12.5 µg/mL
same,MIC (μg/mL) E. coli BL21,E. coli BL21; [2],12.5 µg/mL
same,MIC (μg/mL) P. aeruginosa,Pseudomonas aeruginosa; 10 h cultivation at 37° C.,50 µg/mL
same,MIC (μg/mL) K. pneumonia,Klebsiella pneumonia; 10 h cultivation at 37° C.,12.5 µg/mL
same,MIC (μg/mL) E. cloacae,Enterobacter cloacae; 10 h cultivation at 37° C.,50 µg/mL
same,MIC (μg/mL) A. hydrophila,Aeromonas hydrophila; 10 h cultivation at 37° C.,25 µg/mL
same,MIC (μg/mL) C. diversus,Citrobacter diversus; 10 h cultivation at 37° C.,12.5 µg/mL
same,MIC (μg/mL) M. catarrhalis,Moraxella catarrhalis; 10 h cultivation at 37° C.,25 µg/mL
same,MIC (μg/mL) P. mirabilis,Proteus mirabilis; 10 h cultivation at 37° C.,50 µg/mL
same,MIC (μg/mL) P. vulgaris,Proteus vulgaris; 10 h cultivation at 37° C.,25 µg/mL
same,MIC (μg/mL) S. marcescens,Serratia marcescens; 10 h cultivation at 37° C.,12.5 µg/mL

# Reference: patent US9833497B2, “Human originated EGF domain proteins and use of the same” (CHENGDU SOURCEBIO LIMITED-LIABILITY COMPANY, priority 2013, dated 2017)
